In patent US8802815B2, “Peptides and uses thereof to modulate IGF-1 synthesis and IGF-1 receptor expression” (Universite Pierre et Marie Curie (Paris 6), priority 2009, dated 2014):

What was measured:
Type in all cases: cell-based, mouse
[1] = test system: chondrocytes; assay: [3H] thymidine incorporation in DNA (cell proliferation), primary chondrocytes culture
Experimental: To assess peptide ability to induce cell proliferation, inventors carried out a test showing [H^3] thymidine incorporation during DNA duplication according to Kurz et al., 1997 method. This test was adapted to the model used by the inventors, namely a primary mouse embryonic chondrocytes culture.
Chondrocytes, obtained by dissociation of mouse mandible condyles (MCDC) were incubated in a culture medium permitting chondrogenesis, in particular, 5×10^5 cells/ml were incubated with 1 μCi [^3H]-thymidine/ml of medium (Amersham, code TRA120, stock 1 mCi/ml, specific activity 5 Ci/mmol) for 3 hours at 37° C. in DMEM medium (Dulbecco's modified Eagle's medium) fetal calf serum (FCS) free but supplemented with 100 μg/ml of ascorbic acid, 1 mmol/L of calcium chloride, 10 mmol/L of 3-glycerophosphate, and antibiotics. Same medium, in which 5 μl of [^3H]-thymidine are added for 2 minutes, is used as negative control. Supernatant was removed and cells were washed twice with saline solution buffered at pH 7.0 (PBS), the cells are washed twice (for 5 minutes) with methanol. Then the cells are washed three times with a 10% trichloroacetic acid (TCA) cold solution. After washing cells twice with DDW, cells are incorporated in 200 μl of 0.3M NaOH for 15 minutes. The cells are then transferred in 3 ml of a neutralized scintillation fluid with 200 μl of 0.3M HCl. […]

[2] = test system: IGF-1R; assay: IGF-1R expression in chondrocytes in culture, optical density (FIG. 2)
Excerpt: (§1) Inventors investigated P70 effect on IGF-1 synthesis and on expression of its receptor (IGF-1R) by means of chondrocytes in culture.

[3] = test system: IGF-1; assay: IGF-1 production in chondrocytes in culture (FIG. 2)
Excerpt: as §1

[4] = test system: IGF-1 receptor; assay: IGF-1R expression by immunohistochemistry, 5-day primary chondrocytes culture (FIG. 3); settings: IHC, 5-day culture
[5] = test system: IGF-1; assay: IGF-1 synthesis by immunohistochemistry, primary chondrocytes culture (FIG. 4); settings: IHC
Excerpt: Moreover (FIG. 4), P70 inhibits IGF-1 synthesis at 10^−6M (30% inhibition at a high concentration of peptide) and stimulates IGF-1 synthesis at 10^−7M (90% increase at a low concentration of peptide).

[6] = test system: type II collagen; assay: Type II collagen production by immunochemistry, chondrocytes culture (FIG. 5); settings: 10^-7M peptide; 5th day of culture
Experimental: The mouse embryos chondrocytes obtained according to same protocol as described above were cultured and incubated at a 10^−7M peptide P70 concentration. […] In fact, an increase of 150% is observed relative to the untreated control.

[7] = test system: chondrocytes; assay: Chondrogenesis: cartilage nodule formation in chondrocytes culture (FIG. 6); settings: 10^-7M peptide; 7th day of incubation; vs untreated chondrocytes
Experimental: In FIG. 6, the peptide P70 effect at a concentration of 10^−7M is compared with untreated chondrocytes (control). At 7th day of incubation, in the presence of the peptide, accelerated formation of nodules of cartilage is clearly observed. The cartilage nodules development (volume/culture) is 85% accelerated.

effect on the production of IGF-1 receptor ([2]; 10^-6M peptide): virtually inhibits
effect on expression of IGF-1 receptor (IGF-1R) ([2]; 10^-7 M peptide): important stimulation effect
inhibition of IGF-1 receptor expression ([4]; 10^-6 M peptide): 36.8%
increase of IGF-1 receptor expression ([4]; 10^-7 M peptide): 23.8%
Substance: Acetyl-SNFGSRKFSYKAKFWTDVTTSELG-amide (Ac-SNFGSRKFSYKAKFWTDVTTSELG-NH2) [P70, 24-mer peptide of the invention, N-terminal acetyl, C-terminal amide]
stimulatory effect on the proliferation of chondrocytes, greater than the untreated control ([1]; 10^-6M peptide, 3 hours): 53%
stimulation effect on the proliferation of chondrocytes ([1]; 10^-7M peptide): not observed
effect on the production of IGF-1 ([3]; 10^-6M peptide): virtually inhibits
effect on IGF-1 production ([3]; 10^-7 M peptide): important stimulation effect
inhibition of IGF-1 synthesis ([5]; 10^-6M peptide): 30%
increase of IGF-1 synthesis ([5]; 10^-7M peptide): 90%
increase of type II collagen production relative to the untreated control [6]: 150%
acceleration of cartilage nodules development (volume/culture) [7]: 85%
